Values of other authors, collected in patent US20120189694A1, “CO-PRECIPITATE COMPRISING A PHOSPHODIESTERASE-5 INHIBITOR (PDE-5-INHIBITOR) AND A […] COMPATIBLE CARRIER, PRODUCTION AND USE THEREOF” (ratiopharm GmbH, priority 2009, published 2012).

Experiments:
[1] = according to WO 01/08687
[2] = in vivo

CN1CC(=O)N2[C@H](c3ccc4c(c3)OCO4)c3[nH]c4ccccc4c3C[C@@H]2C1=O [tadalafil, (6R,12aR)-6-(1,3-benzodioxol-5-yl)-2-methyl-1,2,3,4,6,7,12,12a-octahydropyrazino[2′,1′:6,1]pyrido[3,4-b]indole-1,4-dione]
solubility in water [1]: about 2 μg/ml | time the action lasts [2]: up to 36 hours
